Measurements from the NIST ThermoML archive (doi:10.1016/j.jct.2008.02.020).
Numbers after ± are expanded uncertainties.

Conditions: Liquid, Buoyancy - hydrostatic balance with magnetic suspension - one sinker

CCCCCCCCC [nonane]
Conditions | mass density [kg/m3]
233.15 K, 101.46 kPa | 763.962 ± 0.24
233.15 K, 1176.1 kPa | 764.563 ± 0.24
233.15 K, 2178.2 kPa | 765.126 ± 0.24
233.15 K, 4167 kPa | 766.231 ± 0.24
233.15 K, 5936.5 kPa | 767.203 ± 0.24
233.15 K, 8144.5 kPa | 768.395 ± 0.24
233.15 K, 10066 kPa | 769.42 ± 0.24
233.15 K, 12148 kPa | 770.516 ± 0.25
233.15 K, 14076 kPa | 771.516 ± 0.25
233.15 K, 16087 kPa | 772.548 ± 0.25
233.15 K, 18067 kPa | 773.551 ± 0.25
233.15 K, 19984 kPa | 774.511 ± 0.25
233.15 K, 21990 kPa | 775.502 ± 0.25
233.15 K, 24044 kPa | 776.506 ± 0.25
233.15 K, 25990 kPa | 777.446 ± 0.25
233.15 K, 27927 kPa | 778.373 ± 0.25
233.15 K, 29906 kPa | 779.308 ± 0.25
253.15 K, 101.82 kPa | 748.678 ± 0.24
253.15 K, 1135.3 kPa | 749.335 ± 0.24
253.15 K, 2178.6 kPa | 749.992 ± 0.24
253.15 K, 3967.8 kPa | 751.107 ± 0.24
253.15 K, 6147.5 kPa | 752.446 ± 0.24
253.15 K, 8138 kPa | 753.648 ± 0.24
253.15 K, 10112 kPa | 754.82 ± 0.24
253.15 K, 12111 kPa | 755.991 ± 0.24
253.15 K, 14130 kPa | 757.156 ± 0.24
253.15 K, 16140 kPa | 758.299 ± 0.24
253.15 K, 18106 kPa | 759.398 ± 0.24
253.15 K, 20064 kPa | 760.484 ± 0.24
253.15 K, 22026 kPa | 761.552 ± 0.24
253.15 K, 23955 kPa | 762.59 ± 0.24
253.15 K, 25972 kPa | 763.661 ± 0.24
253.15 K, 27913 kPa | 764.677 ± 0.24
253.15 K, 29967 kPa | 765.739 ± 0.24
273.15 K, 102.52 kPa | 733.389 ± 0.23
273.15 K, 1156.8 kPa | 734.143 ± 0.23
273.15 K, 2138 kPa | 734.842 ± 0.23
273.15 K, 4026 kPa | 736.166 ± 0.23
273.15 K, 6169.4 kPa | 737.644 ± 0.23
273.15 K, 8161.4 kPa | 738.99 ± 0.23
273.15 K, 10122 kPa | 740.29 ± 0.23
273.15 K, 12106 kPa | 741.586 ± 0.23
273.15 K, 14101 kPa | 742.864 ± 0.23
273.15 K, 16067 kPa | 744.108 ± 0.23
273.15 K, 18074 kPa | 745.354 ± 0.23
273.15 K, 20036 kPa | 746.555 ± 0.24
273.15 K, 22000 kPa | 747.737 ± 0.24
273.15 K, 23996 kPa | 748.923 ± 0.24
273.15 K, 25994 kPa | 750.093 ± 0.24
273.15 K, 27982 kPa | 751.238 ± 0.24
273.15 K, 29876 kPa | 752.316 ± 0.24
293.15 K, 101.69 kPa | 717.968 ± 0.22
293.15 K, 1184.3 kPa | 718.847 ± 0.22
293.15 K, 2129.2 kPa | 719.604 ± 0.22
293.15 K, 3960.5 kPa | 721.055 ± 0.23
293.15 K, 6115.4 kPa | 722.729 ± 0.23
293.15 K, 7981.6 kPa | 724.145 ± 0.23
293.15 K, 10015 kPa | 725.663 ± 0.23
293.15 K, 12149 kPa | 727.214 ± 0.23
293.15 K, 13981 kPa | 728.526 ± 0.23
293.15 K, 16170 kPa | 730.062 ± 0.23
293.15 K, 17943 kPa | 731.285 ± 0.23
293.15 K, 20200 kPa | 732.813 ± 0.23
293.15 K, 22156 kPa | 734.115 ± 0.23
293.15 K, 24158 kPa | 735.421 ± 0.23
293.15 K, 26136 kPa | 736.696 ± 0.23
293.15 K, 28126 kPa | 737.958 ± 0.23
293.15 K, 29978 kPa | 739.115 ± 0.23
313.15 K, 98.73 kPa | 702.339 ± 0.22
313.15 K, 1168.7 kPa | 703.323 ± 0.22
313.15 K, 2131.9 kPa | 704.205 ± 0.22
313.15 K, 3967.4 kPa | 705.852 ± 0.22
313.15 K, 6162.3 kPa | 707.777 ± 0.22
313.15 K, 8113.9 kPa | 709.449 ± 0.22
313.15 K, 10024 kPa | 711.038 ± 0.22
313.15 K, 12173 kPa | 712.791 ± 0.22
313.15 K, 14170 kPa | 714.384 ± 0.22
313.15 K, 16194 kPa | 715.964 ± 0.22
313.15 K, 17956 kPa | 717.315 ± 0.22
313.15 K, 20057 kPa | 718.889 ± 0.22
313.15 K, 22191 kPa | 720.459 ± 0.23
313.15 K, 24136 kPa | 721.862 ± 0.23
313.15 K, 26139 kPa | 723.282 ± 0.23
313.15 K, 28073 kPa | 724.629 ± 0.23
313.15 K, 29972 kPa | 725.932 ± 0.23
333.15 K, 102.84 kPa | 686.431 ± 0.21
333.15 K, 1137.5 kPa | 687.521 ± 0.21
333.15 K, 2113.9 kPa | 688.539 ± 0.21
333.15 K, 4162.7 kPa | 690.632 ± 0.21
333.15 K, 6145.3 kPa | 692.599 ± 0.21
333.15 K, 8151.9 kPa | 694.535 ± 0.21
333.15 K, 10024 kPa | 696.296 ± 0.21
333.15 K, 12114 kPa | 698.208 ± 0.22
333.15 K, 14127 kPa | 700.005 ± 0.22
333.15 K, 15989 kPa | 701.627 ± 0.22
333.15 K, 18027 kPa | 703.362 ± 0.22
333.15 K, 19954 kPa | 704.977 ± 0.22
333.15 K, 22112 kPa | 706.723 ± 0.22
333.15 K, 24080 kPa | 708.292 ± 0.22
333.15 K, 26038 kPa | 709.821 ± 0.22
333.15 K, 28054 kPa | 711.366 ± 0.22
333.15 K, 29912 kPa | 712.772 ± 0.22
353.15 K, 97.13 kPa | 671.217 ± 0.2
353.15 K, 2136.7 kPa | 672.617 ± 0.21
353.15 K, 6141.9 kPa | 677.222 ± 0.21
353.15 K, 8110.9 kPa | 679.378 ± 0.21
353.15 K, 10054 kPa | 681.439 ± 0.21
353.15 K, 12124 kPa | 683.57 ± 0.21
353.15 K, 14144 kPa | 685.589 ± 0.21
353.15 K, 15989 kPa | 687.385 ± 0.21
353.15 K, 18011 kPa | 689.305 ± 0.21
353.15 K, 20036 kPa | 691.174 ± 0.21
353.15 K, 21991 kPa | 692.938 ± 0.21
353.15 K, 23965 kPa | 694.678 ± 0.21
353.15 K, 25968 kPa | 696.403 ± 0.21
353.15 K, 27955 kPa | 698.078 ± 0.22
353.15 K, 29939 kPa | 699.718 ± 0.22
373.15 K, 102.37 kPa | 653.427 ± 0.2
373.15 K, 1227.9 kPa | 655.018 ± 0.2
373.15 K, 2148.9 kPa | 656.298 ± 0.2
373.15 K, 4131.5 kPa | 658.968 ± 0.2
373.15 K, 6127 kPa | 661.551 ± 0.2
373.15 K, 8138.8 kPa | 664.058 ± 0.2
373.15 K, 10022 kPa | 666.323 ± 0.2
373.15 K, 12112 kPa | 668.749 ± 0.2
373.15 K, 14119 kPa | 671.003 ± 0.2
373.15 K, 16134 kPa | 673.197 ± 0.21
373.15 K, 18104 kPa | 675.276 ± 0.21
373.15 K, 20078 kPa | 677.302 ± 0.21
373.15 K, 22064 kPa | 679.286 ± 0.21
373.15 K, 23988 kPa | 681.158 ± 0.21
373.15 K, 26124 kPa | 683.184 ± 0.21
373.15 K, 28010 kPa | 684.93 ± 0.21
373.15 K, 29905 kPa | 686.647 ± 0.21
